What all share (assay): NCI anticancer screen, dose series, 48 h
For experiment [1], the system named is SF-295 CNS.
Experiment [2] deals with LOX IMVI melanoma.
Experiment [3] relates to SW-620 colon.
Experiment [4] deals with OVCAR-8 ovarian.
In experiment [5] the test system is SR leukemia.
Experiment [6] relates to OVCAR-5 ovarian.
For experiment [7], the system named is MOLT-4 leukemia.
In experiment [8] the test system is UACC-62 melanoma.
Experiment [9] has as its system SF-268 CNS.
Experiment [10] relates to HL-60(TB) leukemia.

Structures are written as SMILES. Values joined by “and” are separate entries in the source; they are usually repeats but may differ in a detail not shown here. Equal values may be shown once.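 Grown in 96-well plates, cells were treated for 48 hours with each compound at five concentrations. Insufficient inhibition: endpoint recorded as highest concentration tested. GI50: concentration for 50% inhibition of growth. At the TGI there is no net growth.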 A value given as a limit tells only on which side of the number the result lay.

For the compound `CN(C)c1ccc(C(=N)c2ccc(N(C)C)cc2)cc1`, the GI50 is 2.01 µM and 3.4 µM in experiment [1]; 5.37 µM and 4.92 µM in experiment [2]; 1.95 µM and 2.58 µM in experiment [3]; 3.79 µM and 3.55 µM in experiment [4]; 0.736 µM in experiment [5]; 7.57 µM and 7.89 µM in experiment [6]. Also, the GI50 in experiment [7] was 3.66 µM; in [8] it was 3.24 µM and 5.32 µM; in experiment [9], 4.64 µM and 11.6 µM; in experiment [10], 3.3 µM. The TGI in experiment [1] was 11.9 µM and 21.9 µM; in [2], 33 µM and 30.2 µM; in experiment [3], 20.8 µM and > 100 µM; in experiment [4], 19.1 µM and 28.1 µM; in experiment [5] it was 5.3 µM; in experiment [6], more than 100 µM. Besides, the TGI in experiment [7] was 26 µM; in experiment [8] it was 17.6 µM and 23.9 µM; in experiment [9], 43.4 µM and > 100 µM; in [10], 14.8 µM.

On to `O=C1/C(=C/c2ccc(F)c(F)c2)CN(C(=O)C(Cl)Cl)C/C1=C\c1ccc(F)c(F)c1`, for which the GI50 in experiment [1] is 0.0454 µM; in experiment [2], 0.0222 µM; in [3] it was 0.0215 µM; in experiment [4], 0.0564 µM; in [5], 0.0128 µM; in experiment [6], 0.167 µM. The GI50 was 0.0491 µM in [7], 0.172 µM in [8], 0.265 µM in experiment [9] and 0.113 µM in [10]. Besides, the TGI in experiment [1] is 0.21 µM; in experiment [2], 0.0549 µM; in experiment [3], 0.0554 µM; in experiment [4] it was 1.31 µM; in experiment [5] it was more than 100 µM; in experiment [6], 0.421 µM. For the same compound, the TGI in [7] is more than 100 µM; in experiment [8], 0.365 µM; in experiment [9], 0.982 µM; in [10], 0.97 µM.

For the compound `CCCCC[C@H]1CC=C2C(=O)C=C[C@@H]2CC=CCCCC(=O)O[C@@H](CCCCC)CC=C2C(=O)C=C[C@@H]2CC=CCCCC(=O)O[C@@H](CCCCC)CC=C2C(=O)C=C[C@@H]2CC=CCCCC(=O)O1`, the GI50 in [1] was 0.432 µM; in experiment [2], 0.15 µM; in experiment [3] it was 0.373 µM; in experiment [4], 0.277 µM; in experiment [5], 0.229 µM; in experiment [6] it was 1.08 µM. Moreover, the GI50 in experiment [7] was 0.266 µM; in [8], 0.204 µM; in experiment [9], 0.305 µM; in experiment [10], 0.243 µM. The TGI in experiment [1] was 5.13 µM; in experiment [2], 0.306 µM; in experiment [3], 1.51 µM; in [4], more than 8.75 µM; in experiment [5], 1.34 µM; in experiment [6], more than 8.75 µM. Besides, the TGI was more than 8.75 µM in experiment [7], 0.545 µM in [8], 7.8 µM in experiment [9] and 0.76 µM in experiment [10].

Consider `CC(=O)O[C@@]12CO[C@@H]1C[C@H](O)[C@@]1(C)C(=O)[C@H](O)C3=C(C)[C@@H](OC(=O)[C@H](O)[C@@H](NC(=O)OC(C)(C)C)c4ccccc4)C[C@@](O)([C@@H](OC(=O)c4ccccc4)C12)C3(C)C` (stereo partly specified), for which the GI50 in experiment [1] is 0.016 µM; in experiment [3], less than 0.005 µM; in experiment [4] it was less than 0.005 µM; in experiment [5] it was less than 0.005 µM; in experiment [7], 0.0194 µM; in experiment [8], 0.0922 µM. Moreover, the GI50 in [10] is less than 0.005 µM. For the same compound, the TGI is 50 µM and 16.8 µM in experiment [1]; 79 µM in experiment [2]; 50 µM and > 100 µM in [3]; 50 µM in experiment [4]; 46.3 µM and 14.7 µM in experiment [5]; 89.2 µM in [6]. Also, the TGI in [7] was 52.6 µM; in experiment [8], 33.7 µM; in experiment [9] it was 81.5 µM; in experiment [10] it was 0.0241 µM and 0.0348 µM.

Turning to `Oc1[nH]c(N=C2N=c3ccccc3=N2)c2ccccc12`, the GI50 in experiment [1] is 3.64 µM; in experiment [2] it was 4.78 µM; in experiment [3], 10.6 µM; in experiment [4], 11.4 µM; in [5] it was 5.46 µM; in [6], 20.4 µM. In addition, the GI50 was 3.28 µM in experiment [7], 11.8 µM in experiment [8], 11.6 µM in experiment [9] and 13.7 µM in [10]. Further, the TGI in [1] stood at 26 µM; in [2] it was 24.9 µM; in [3] it was 32.4 µM; in experiment [4] it was 46.4 µM; in experiment [5], 41.6 µM; in experiment [6], 68.1 µM. The TGI was 29.5 µM in experiment [7], 36 µM in experiment [8], 50.8 µM in [9] and 52.9 µM in [10].

Take `CCN1C(=O)N(CC)C2C1NN=c1s/c(=C\c3cccs3)c(=O)n12` (stereo unspecified): the GI50 in experiment [1] is 0.069 µM; in experiment [2], 0.139 µM; in experiment [3], 0.0667 µM; in experiment [4], 0.424 µM; in [5] it was 0.0576 µM; in experiment [6], 0.445 µM. For the same compound, the GI50 is 0.396 µM in experiment [7], 1.67 µM in experiment [9] and 0.225 µM in experiment [10]. Besides, the TGI in experiment [1], in [2], in [3], in [4], in experiment [5] and in [6] was more than 100 µM each time. Also, the TGI is more than 100 µM in experiment [7], more than 100 µM in experiment [8], more than 100 µM in experiment [9] and 0.707 µM in experiment [10].

Take `COc1ccc2c3c(c(C(=O)O)oc13)CCC2`: the TGI in [1], in experiment [2], in [3], in experiment [4], in experiment [5] and in [6] was more than 100 µM each time. Moreover, the TGI in experiment [7], in experiment [8], in experiment [9] and in experiment [10] was more than 100 µM in each case.
